# Test results from patent publication US20250145665A1, “MACROCYCLIC PEPTIDES USEFUL AS MODULATORS OF TNF ALPHA” (Bristol-Myers Squibb Company, priority 2023, published 2025).
# Starred links: 1 amine or outer side, 2 acyl side, 3 side chain; linkers in the order of their positions; H or OH if unused. Positions of bridges follow the written chain, without caps; N, C: chain ends. Non-standard residues stand in square brackets, D forms with d. Residues, ends and D or L forms follow the SMILES beside them. *: point of attachment. Bip(4'-NHCO-C6H4-3-CH2COOH) = N[C@@H](Cc1ccc(-c2ccc(NC(=O)c3cccc(CC(=O)O)c3)cc2)cc1)C(=O)O; X10 = Cn1cc(C(=O)Nc2ccc(-c3ccc(C[C@H](N[*:1])C(=O)[*:2])cc3)cc2)c2ccccc21; X5 = Cn1nc(C(=O)Nc2ccc(-c3ccc(C[C@H](N[*:1])C(=O)[*:2])cc3)cc2)c2ccccc21; Bip(4'-NH) = O=C([C@H](Cc1ccc(-c2ccc(N[*:3])cc2)cc1)N[*:1])[*:2]; dArg(ω-(3-HO-benzyl)) = N=C(NCCC[C@@H](N)C(=O)O)NCc1cccc(O)c1; Indazole3carbonyl(1-CH2COOH) = O=C(O)Cn1nc(C(=O)*)c2ccccc21; Bip(4'-COOH) = N[C@@H](Cc1ccc(-c2ccc(C(=O)O)cc2)cc1)C(=O)O; Bip(4'-NHAc) = CC(=O)Nc1ccc(-c2ccc(C[C@H](N)C(=O)O)cc2)cc1; X69 = N=C(NCCC[C@@H](N[*:1])C(=O)[*:2])NCc1cccc(N)c1; Ala(imidazol-2-yl) = N[C@@H](Cc1ncc[nH]1)C(=O)O; dArg(ω-Bn) = N=C(NCCC[C@@H](N)C(=O)O)NCc1ccccc1; Ala(morpholin-4-yl) = N[C@@H](CN1CCOCC1)C(=O)O; Benzoyl(3-OCH2COOH) = O=C(O)COc1cccc(C(=O)*)c1; Bip = N[C@@H](Cc1ccc(-c2ccccc2)cc1)C(=O)O; Morpholine(3S-CO) = O=C(O)[C@@H]1COCCN1; Tiq1c(1S) = O=C(O)[C@H]1NCCc2ccccc21; 2Pal = N[C@@H](Cc1ccccn1)C(=O)O; 3Pal = N[C@@H](Cc1cccnc1)C(=O)O; 2Thi = N[C@@H](Cc1cccs1)C(=O)O; Cha = N[C@@H](CC1CCCCC1)C(=O)O; Chg = N[C@H](C(=O)O)C1CCCCC1; Tle = CC(C)(C)[C@H](N)C(=O)O; Aze = O=C(O)[C@@H]1CCN1; Sar = CNCC(=O)O
# Biological target: TNFα (Homo sapiens, UniProt P01375)
# Assay: TNF-Induced HEK-Blue Assay
# Assay type: cell-based
# Conditions: not given
# Chain of TNFα (P01375 77-233 limits assumed): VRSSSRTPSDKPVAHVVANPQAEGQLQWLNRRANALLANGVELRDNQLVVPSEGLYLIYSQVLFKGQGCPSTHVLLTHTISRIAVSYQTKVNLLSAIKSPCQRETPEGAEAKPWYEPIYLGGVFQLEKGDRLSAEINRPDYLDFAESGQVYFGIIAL
row,SMILES,IC50
1,CC(C)C[C@@H]1NC(=O)[C@H](CCCNC(=N)N)NC(=O)[C@H](C(C)C)NC(=O)[C@@H]2CCCN2C(=O)[C@H](C(C)C)NC(=O)[C@@H](CCCNC(=N)NCc2cccc(N)c2)NC(=O)[C@H](CC(=O)O)NC(=O)[C@@H]2CCCN2C(=O)CN(C)C(=O)[C@H](Cc2ccc(-c3ccc(NC(=O)c4nn(CC(=O)O)c5ccccc45)cc3)cc2)NC(=O)[C@H](Cc2ccc(-c3ccccc3)cc2)NC(=O)[C@H](CN2CCOCC2)NC(=O)CSC[C@@H](C(=O)NCC(N)=O)NC1=O [Example 636] ({CH2CO}-[Ala(morpholin-4-yl)][Bip][Bip(4'-NH)](Indazole3carbonyl(1-CH2COOH))[Sar]PD[X69]VPVRLCG-NH2; thioether N-13),< 50 nM
2,CC(C)C[C@@H]1NC(=O)[C@H](Cc2ncc[nH]2)NC(=O)[C@H](C(C)C)NC(=O)[C@@H]2CCCN2C(=O)[C@H](C(C)C)NC(=O)[C@@H](CCCNC(=N)NCc2cccc(O)c2)NC(=O)[C@H](CC(=O)O)NC(=O)[C@H](Cc2ccccn2)NC(=O)CN(C)C(=O)[C@H](Cc2ccc(-c3ccc(NC(=O)c4nn(CC(=O)O)c5ccccc45)cc3)cc2)NC(=O)[C@H](Cc2ccc(-c3ccc(C(=O)O)cc3)cc2)NC(=O)[C@H](CC2CCCCC2)NC(=O)CSC[C@@H](C(=O)NCC(N)=O)NC1=O [Example 551] ({CH2CO}-[Cha][Bip(4'-COOH)][Bip(4'-NH)](Indazole3carbonyl(1-CH2COOH))[Sar][2Pal]D[dArg(ω-(3-HO-benzyl))]VPV[Ala(imidazol-2-yl)]LCG-NH2; thioether N-13),< 50 nM
3,CC(C)C[C@@H]1NC(=O)[C@H](Cc2ccc(O)cc2)NC(=O)[C@H](C(C)C)NC(=O)[C@@H]2CCCN2C(=O)[C@H](C(C)C)NC(=O)[C@@H](CCCNC(=N)N)NC(=O)[C@H](CC(=O)O)NC(=O)[C@@H]2CCCN2C(=O)CN(C)C(=O)[C@H](Cc2ccc(-c3ccc(NC(=O)c4nn(CC(=O)O)c5ccccc45)cc3)cc2)NC(=O)[C@H](Cc2ccc(-c3ccc(C(=O)O)cc3)cc2)NC(=O)[C@H](CC2CCCCC2)NC(=O)CSC[C@@H](C(=O)NCC(N)=O)NC1=O [Example 363] ({CH2CO}-[Cha][Bip(4'-COOH)][Bip(4'-NH)](Indazole3carbonyl(1-CH2COOH))[Sar]PD[dR]VPVYLCG-NH2; thioether N-13),< 50 nM

# Same assay, conditions: HEK-Blue-CD40L cells, NF-kB-driven secreted alkaline phosphatase reporter; TNFα 0.5 ng/ml; 18 h; read-out: TNF induced HEK-Blue assay IC50 value
row,SMILES,IC50
1,CC(=O)Nc1ccc(-c2ccc(C[C@@H]3NC(=O)[C@H](Cc4ccc(-c5ccc(C(=O)O)cc5)cc4)NC(=O)[C@H](CN4CCOCC4)NC(=O)CSC[C@@H](C(=O)NCC(N)=O)NC(=O)[C@H](CC(C)C)NC(=O)[C@H](Cc4ccc(O)cc4)NC(=O)[C@H](C(C)C)NC(=O)[C@@H]4COCCN4C(=O)[C@H](C(C)C)NC(=O)[C@@H](CCCNC(=N)N)NC(=O)[C@H](CC(=O)O)NC(=O)[C@H](Cc4ccc(O)cc4)NC(=O)CN(C)C3=O)cc2)cc1 [Example 167] ({CH2CO}-[Ala(morpholin-4-yl)][Bip(4'-COOH)][Bip(4'-NHAc)][Sar]YD[dR]V[Morpholine(3S-CO)]VYLCG-NH2; thioether N-13),50 to 200 nM
2,CC(C)C[C@@H]1NC(=O)[C@H](CCCNC(=N)N)NC(=O)[C@H](C(C)C)NC(=O)[C@@H]2CCCN2C(=O)[C@H](C(C)C)NC(=O)[C@@H](CCCNC(=N)N)NC(=O)[C@H](CC(=O)O)NC(=O)[C@@H]2CCCN2C(=O)CN(C)C(=O)[C@H](Cc2ccc(-c3ccc(NC(=O)c4cn(C)c5ccccc45)cc3)cc2)NC(=O)[C@H](Cc2ccc(-c3ccccc3)cc2)NC(=O)[C@H](CN2CCOCC2)NC(=O)CSC[C@@H](C(=O)NCC(N)=O)NC1=O [Example 348] ({CH2CO}-[Ala(morpholin-4-yl)][Bip][X10][Sar]PD[dR]VPVRLCG-NH2; thioether N-13),50 to 200 nM
3,CC(=O)Nc1ccc(-c2ccc(C[C@@H]3NC(=O)[C@H](Cc4ccc(-c5ccccc5)cc4)NC(=O)[C@H](CN4CCOCC4)NC(=O)CSC[C@@H](C(=O)NCC(N)=O)NC(=O)[C@H](CC(C)C)NC(=O)[C@H](Cc4ccccn4)NC(=O)[C@H](C(C)C)NC(=O)[C@@H]4CCCN4C(=O)[C@H](C(C)C)NC(=O)[C@@H](CCCNC(=N)N)NC(=O)[C@H](CC(=O)O)NC(=O)[C@H](Cc4ccccn4)NC(=O)CN(C)C3=O)cc2)cc1 [Example 172] ({CH2CO}-[Ala(morpholin-4-yl)][Bip][Bip(4'-NHAc)][Sar][2Pal]D[dR]VPV[2Pal]LCG-NH2; thioether N-13),< 50 nM
4,CC[C@H](C)[C@@H]1NC(=O)[C@@H]2CCCN2C(=O)[C@H]([C@@H](C)CC)NC(=O)[C@@H](CCCNC(=N)N)NC(=O)[C@H](CC(=O)O)NC(=O)[C@H](Cc2ccccc2)NC(=O)CN(C)C(=O)[C@H](Cc2ccc(-c3ccc(NC(=O)c4nn(C)c5ccccc45)cc3)cc2)NC(=O)[C@H](Cc2ccc(-c3ccccc3)cc2)NC(=O)[C@H](CC2CCCCC2)NC(=O)CSC[C@@H](C(=O)NCC(N)=O)NC(=O)[C@H](CC(C)C)NC(=O)[C@H](Cc2ncc[nH]2)NC1=O [Example 402] ({CH2CO}-[Cha][Bip][X5][Sar]FD[dR]IPI[Ala(imidazol-2-yl)]LCG-NH2; thioether N-13),50 to 200 nM
5,CC(C)C[C@@H]1NC(=O)[C@H](CCCNC(=N)N)NC(=O)[C@H](C(C)C)NC(=O)[C@@H]2CCCN2C(=O)[C@H](Cc2cccnc2)NC(=O)[C@H](CCCNC(=N)N)NC(=O)[C@H](CC(=O)O)NC(=O)[C@H](Cc2ccc(O)cc2)NC(=O)CN(C)C(=O)[C@H](Cc2ccc(-c3ccccc3)cc2)NC(=O)[C@H](Cc2ccc(-c3ccccc3)cc2)NC(=O)[C@H](CN2CCOCC2)NC(=O)CSC[C@@H](C(=O)NCC(N)=O)NC1=O [Example 114] ({CH2CO}-[Ala(morpholin-4-yl)][Bip][Bip][Sar]YDR[3Pal]PVRLCG-NH2; thioether N-13),200 to 2000 nM

# Now from value to compound:
row,IC50,SMILES
1,50 to 200 nM,CC[C@H](C)[C@@H]1NC(=O)[C@@H](CCCNC(=N)N)NC(=O)[C@H](CC(=O)O)NC(=O)[C@H](Cc2cnc[nH]2)NC(=O)CN(C)C(=O)[C@H](Cc2ccc(-c3ccc(NC(C)=O)cc3)cc2)NC(=O)[C@H](Cc2ccc(-c3ccc(C(=O)O)cc3)cc2)NC(=O)[C@H](CC2CCCCC2)NC(=O)CSC[C@@H](C(=O)NCC(N)=O)NC(=O)[C@H](CC(C)C)NC(=O)[C@H](Cc2ccc(OC)cc2)NC(=O)[C@H](C(C)C)NC(=O)[C@@H]2CCCN2C1=O [Example 281] ({CH2CO}-[Cha][Bip(4'-COOH)][Bip(4'-NHAc)][Sar]HD[dR]IPVY(Me)LCG-NH2; thioether N-13)
2,< 50 nM,CC(=O)Nc1ccc(-c2ccc(C[C@@H]3NC(=O)[C@H](Cc4ccc(-c5ccccc5)cc4)NC(=O)[C@H](CN4CCOCC4)NC(=O)CSC[C@@H](C(=O)NCC(N)=O)NC(=O)[C@H](CC(C)C)NC(=O)[C@H](CCCNC(=N)N)NC(=O)[C@H](C4CCCCC4)NC(=O)[C@@H]4CCCN4C(=O)[C@H](C(C)C)NC(=O)[C@@H](CCCNC(=N)N)NC(=O)[C@H](CC(=O)O)NC(=O)[C@H](Cc4cnc[nH]4)NC(=O)CN(C)C3=O)cc2)cc1 [Example 232] ({CH2CO}-[Ala(morpholin-4-yl)][Bip][Bip(4'-NHAc)][Sar]HD[dR]VP[Chg]RLCG-NH2; thioether N-13)
3,50 to 200 nM,CC[C@H](C)[C@@H]1NC(=O)[C@@H](CCCNC(=N)N)NC(=O)[C@H](CC(=O)O)NC(=O)[C@@H]2c3ccccc3CCN2C(=O)CN(C)C(=O)[C@H](Cc2ccc(-c3ccc(NC(C)=O)cc3)cc2)NC(=O)[C@H](Cc2ccc(-c3ccc(C(=O)O)cc3)cc2)NC(=O)[C@H](CC2CCCCC2)NC(=O)CSC[C@@H](C(=O)NCC(N)=O)NC(=O)[C@H](CC(C)C)NC(=O)[C@H](Cc2ccc(O)cc2)NC(=O)[C@H](C(C)C)NC(=O)[C@@H]2CCCN2C1=O [Example 279] ({CH2CO}-[Cha][Bip(4'-COOH)][Bip(4'-NHAc)][Sar][Tiq1c(1S)]D[dR]IPVYLCG-NH2; thioether N-13)
4,< 50 nM,CC[C@H](C)[C@@H]1NC(=O)[C@@H]2CCN2C(=O)[C@H]([C@@H](C)CC)NC(=O)[C@@H](CCCNC(=N)N)NC(=O)[C@H](CC(=O)O)NC(=O)[C@H](Cc2ccc(O)cc2)NC(=O)CN(C)C(=O)[C@H](Cc2ccc(-c3ccc(NC(=O)c4cccc(OCC(=O)O)c4)cc3)cc2)NC(=O)[C@H](Cc2ccc(-c3ccccc3)cc2)NC(=O)[C@H](C(C)(C)C)NC(=O)CSC[C@@H](C(=O)NCC(N)=O)NC(=O)[C@H](CC(C)C)NC(=O)[C@H](Cc2ccc(O)cc2)NC1=O [Example 378] ({CH2CO}-[Tle][Bip][Bip(4'-NH)](Benzoyl(3-OCH2COOH))[Sar]YD[dR]I[Aze]IYLCG-NH2; thioether N-13)
5,50 to 200 nM,CC[C@H](C)[C@@H]1NC(=O)[C@@H](CCCNC(=N)N)NC(=O)[C@H](CC(=O)O)NC(=O)[C@@H]2CCCN2C(=O)CN(C)C(=O)[C@H](Cc2ccc(-c3ccc(NC(C)=O)cc3)cc2)NC(=O)[C@H](Cc2ccc(-c3ccc(C(=O)O)cc3)cc2)NC(=O)[C@H](C(C)(C)C)NC(=O)CSC[C@@H](C(=O)NCC(N)=O)NC(=O)[C@H](CC(C)C)NC(=O)[C@H](Cc2ccc(O)cc2)NC(=O)[C@H](C2CCCCC2)NC(=O)[C@@H]2CCCN2C1=O [Example 270] ({CH2CO}-[Tle][Bip(4'-COOH)][Bip(4'-NHAc)][Sar]PD[dR]IP[Chg]YLCG-NH2; thioether N-13)
6,50 to 200 nM,CC(C)C[C@@H]1NC(=O)[C@H](Cc2ccc(O)cc2)NC(=O)[C@H](C(C)C)NC(=O)[C@@H]2CCCN2C(=O)[C@H](C(C)C)NC(=O)[C@@H](CCCNC(=N)NCc2ccccc2)NC(=O)[C@H](CC(=O)O)NC(=O)[C@@H]2CCCN2C(=O)CN(C)C(=O)[C@H](Cc2ccc(-c3ccc(NC(=O)c4cccc(CC(=O)O)c4)cc3)cc2)NC(=O)[C@H](Cc2ccc(-c3ccc(C(=O)O)cc3)cc2)NC(=O)[C@H](CC2CCCCC2)NC(=O)CSC[C@@H](C(=O)NCC(N)=O)NC1=O [Example 583] ({CH2CO}-[Cha][Bip(4'-COOH)][Bip(4'-NHCO-C6H4-3-CH2COOH)][Sar]PD[dArg(ω-Bn)]VPVYLCG-NH2; thioether N-13)
7,50 to 200 nM,CC(=O)Nc1ccc(-c2ccc(C[C@@H]3NC(=O)[C@H](Cc4ccc(-c5ccccc5)cc4)NC(=O)[C@H](CC4CCCCC4)NC(=O)CSC[C@@H](C(=O)NCC(N)=O)NC(=O)[C@H](CC(C)C)NC(=O)[C@H](Cc4cccs4)NC(=O)[C@H](C(C)C)NC(=O)[C@@H]4CCCN4C(=O)[C@H](C(C)C)NC(=O)[C@@H](CCCNC(=N)N)NC(=O)[C@H](CC(=O)O)NC(=O)[C@@H]4CCCN4C(=O)CN(C)C3=O)cc2)cc1 [Example 289] ({CH2CO}-[Cha][Bip][Bip(4'-NHAc)][Sar]PD[dR]VPV[2Thi]LCG-NH2; thioether N-13)
